These results are taken from patent US20260327222A1, “SULFONAMIDE COMPOUND AND HARMFUL-ARTHROPOD-CONTROLLING COMPOSITION CONTAINING SAME” (SUMITOMO CHEMICAL COMPANY, LIMITED, priority 2022, published 2026).

Common to all, as to format: in vivo
In data set [1] the test system is cotton aphids (Aphis gossypii). In words: Test Method 11: cotton aphid foliar spray, cucumber seedlings (Formulation Example 5). Conditions: spray 10 mL/seedling, 5 days after spraying, 25 °C. Here is the method:
(§1) Each test compound is formulated according to the method mentioned in Formulation Example 5 to obtain each formulation, and water containing 0.03% by volume of Shindaine (registered trademark) is added thereto to prepare a diluted solution containing a prescribed concentration of each test compound.
Approximately thirty cotton aphids (Aphis gossypii) (all stages of life) are released onto cucumber (Cucumis sativus) seedlings (on the developmental stage of the second true leaf) planted in a container. After 1 day, each of the diluted solutions is sprayed over the seedlings in a ratio of 10 mL/seedling. After additional 5 days, the number of the surviving insects is examined and the control value is calculated by the following equation.
(§2) Control value (%)={1−(Cb×Tai)/(Cai×Tb)}×100 • where symbols in the equation represent the following meanings: • Cb: Number of test insects in non-treated area; • Cai: Number of surviving insects at the time of the investigation in non-treated area; • Tb: Number of test insects in treated area; and • Tai: Number of surviving insects at the time of the investigation in treated area.
(§3) Here, the “non-treated area” represents an area where the same treatment procedure as that of the treated area is carried out except for not using each test compound.
The test was carried out by making the prescribed concentration 200 ppm and using the following present compounds as a test compound according to the test method 11.
The test was carried out by making the prescribed concentration 50 ppm and using the following present compounds as a test compound according to the test method 11.

Data set [2] concerns diamondback moth (Plutella xylostella). Description: Test Method 10: diamondback moth on sprayed cabbage, 3rd instar larvae (Formulation Example 5). Conditions: spray 20 mL/seedling, 5 days, 25 °C. As for the experimental part:
as §1
Each of the diluted solutions is sprayed over cabbage (Brassicae oleracea) seedlings (on the developmental stage of the third to fourth true leaf) planted in a container in a ratio of 20 mL/seedling. Thereafter, ten 3rd instar larvae of diamondback moth (Plutella xylostella) are released into the container. After 5 days, the number of the surviving insects is counted, and the mortality of insects is calculated by the following equation.
(§4) Mortality (%)=(1−Number of surviving insects/10)×100
The test was carried out by making the prescribed concentration 200 ppm and using the following present compounds as a test compound according to the test method 10.
The test was carried out by making the prescribed concentration 50 ppm and using the following present compounds as a test compound according to the test method 10.

Data set [3] has as its system western corn rootworm (Diabrotica virgifera virgifera). In words: Test Method 5: western corn rootworm on immersed corn seedlings. Conditions: 200 ppm; seedlings immersed 30 seconds; 2nd instar larvae; 5 days; 25 °C. As for the experimental part: Each test compound is dissolved in 50 μL of a mixed solution of polyoxyethylene sorbitan monococoate and acetone (at a volume ratio of 5:95) per 1 mg of the test compound. Water containing 0.03% by volume of Shindaine (registered trademark) is added thereto to prepare a diluted solution containing a prescribed concentration of each test compound.
Young seedlings of corns (Zea mays) are immersed in each of the diluted solutions for 30 seconds. Thereafter, two seedlings are placed in a petri dish (diameter: 90 mm), and ten 2nd instar larvae of western corn rootworm (Diabrotica virgifera virgifera) are released into the dish. After 5 days, the number of the dead insects is counted, and the mortality of insects is calculated by the following equation.
Mortality (%)=(1−Number of dead insects/10)×100
The test was carried out by making the prescribed concentration 200 ppm and using the following present compounds as a test compound according to the test method 5.

For data set [4], the system named is cotton aphids (Aphis gossypii). In words: Test Method 1: cotton aphid foliar spray, cucumber seedlings (Formulation Example 1). Conditions: 500 ppm; spray 10 mL/seedling; 5 days after spraying; 25 °C. Here is the method:
(§5) Each test compound is formulated according to the method mentioned in Formulation Example 1 to obtain each formulation, and water containing 0.03% by volume of Shindaine (registered trademark) is added thereto to prepare a diluted solution containing a prescribed concentration of each test compound.
Approximately 30 cotton aphids (Aphis gossypii) (all stages of life) are released onto cucumber (Cucumis sativus) seedlings (on the developmental stage of the second true leaf) planted in a container. After 1 day, each of the diluted solutions is sprayed over the seedlings in a ratio of 10 mL/seedling. After additional 5 days, the number of the surviving insects is examined and the control value is calculated by the following equation.
as §2, §3
The test was carried out by making the prescribed concentration 500 ppm and using the following present compounds as a test compound according to the test method 1.

For data set [5], the system named is diamondback moth (Plutella xylostella). Description: Test Example 4 (test method 4): diamondback moth on sprayed cabbage, 2nd instar larvae. Conditions: 500 ppm, spray 20 mL/seedling, 5 days, 25 °C. As for the experimental part:
as §5
Each of the diluted solutions is sprayed over cabbage (Brassicae oleracea) seedlings (on the developmental stage of the second to third true leaf) planted in a container in a ratio of 20 mL/seedling. Thereafter, the stem and leaf of the seedlings are cut out, and placed in a container lined with a filter paper. Five 2nd instar larvae of diamondback moth (Plutella xylostella) are released into the container. After 5 days, the number of the surviving insects is counted, and the mortality of insects is calculated by the following equation.
(§6) Mortality (%)=(1−Number of surviving insects/5)×100
The test was carried out by making the prescribed concentration 500 ppm and using the following present compounds as a test compound according to the test method 4.

Data set [6] deals with common cutworm (Spodoptera litura). In words: Test Method 3: common cutworm on sprayed cabbage, 2nd instar larvae. Conditions: 500 ppm, spray 20 mL/seedling, 5 days, 25 °C. As for the experimental part:
as §5
Each of the diluted solutions is sprayed over cabbage (Brassicae oleracea) seedlings (on the developmental stage of the second to third true leaf) planted in a container in a ratio of 20 mL/seedling. Thereafter, the stem and leaf of the seedlings are cut out, and placed in a container lined with a filter paper. Five 2nd instar larvae of common cutworm (Spodoptera litura) are released into the container. After 5 days, the number of the surviving insects is counted, and the mortality of insects is calculated by the following equation.
as §6
The test was carried out by making the prescribed concentration 500 ppm and using the following present compounds as a test compound according to the test method 3.

Data set [7] has the same test system. Description: Test Method 9: common cutworm on sprayed cabbage, 3rd instar larvae (Formulation Example 5). Conditions: 200 ppm, spray 20 mL/seedling, 6 days, 25 °C. Here is the method: as §1
Each of the diluted solutions is sprayed over cabbage (Brassicae oleracea) seedlings (on the developmental stage of the third to fourth true leaf) planted in a container in a ratio of 20 mL/seedling. Thereafter, ten 3rd instar larvae of common cutworm (Spodoptera litura) are released into the container. After 6 days, the number of the surviving insects is counted and the mortality of insects is calculated by the following equation.
as §4
The test was carried out by making the prescribed concentration 200 ppm and using the following present compounds as a test compound according to the test method 9.
The test is carried out by making the prescribed concentration 50 ppm and using the following present compounds as a test compound according to the test method 9. As a result of the test, it is possible to confirm an insecticidal effect on common cutworm (Spodoptera litura).

Data set [8] deals with common house mosquito (Culex pipiens pallens). Description: Test Method 12: common house mosquito larvae in diluted solution. Conditions: 3.5 ppm; final instar larvae; 1 day; 25 °C. Here is the method: Each test compound is formulated according to the method mentioned in Formulation Example 1 to obtain each formulation, and water is added thereto to prepare a diluted solution containing a prescribed concentration of each test compound. […]
The test was carried out by making the prescribed concentration 3.5 ppm and using the following present compounds as a test compound according to the test method 12.

Data set [9] concerns houseflies (Musca domestica). In words: Test Method 8: housefly, coated container contact. Conditions: coating amount 40 mg/m^2; adult males; 1 day; 25 °C. Here is the method: An acetone solution prepared by making the concentration of the test compound 800 ppm is poured into a 20 mL container, and the inner face of the container is uniformly coated with the test compound so as to make the coating amount of 40 mg/m^2, followed by drying.
Five adult male houseflies (Musca domestica) are released into the container, and the container is then covered with a lid. After the prescribed time is elapsed, the state of the houseflies are examined. The mortality of insects is calculated by the following equation.
(§7) Mortality (%)=(Number of dead insects/Number of tested insects)×100
The test was carried out by making the prescribed elapsed time 1 day and using the following present compounds as a test compound according to the test method 8.

Data set [10] has as its system German cockroach (Blattella germanica). Description: Test Method 6: German cockroach, coated container contact. Conditions: coating amount 40 mg/m^2; male adults; 3 days; 25 °C. As for the experimental part:
An acetone solution prepared by making the concentration of the test compound 800 ppm is poured into a 50 mL container, and the inner face of the container is uniformly coated with the test compound so as to make the coating amount of 40 mg/m^2, followed by drying.
Five German cockroach (Blattella germanica) male adults are released into the container, and the container is then covered with a lid. After the prescribed time is elapsed, the state of the German cockroach are examined. The mortality of insects is calculated by the following equation.
as §7
The test was carried out by making the prescribed elapsed time 3 days and using the following present compounds as a test compound according to the test method 6.

For `CNS(=O)(=O)c1c(-c2cnc(OCC(F)(F)C(F)(F)F)cn2)nc2ccc(Br)cn12` [compound 1], the control value in [1] (50 ppm), in data set [1] (200 ppm) and in data set [4] was not below 90% throughout. For the same compound, the mortality in data set [2] (50 ppm), in data set [2] (200 ppm), in [3], in data set [5], in [6] and in [7] was not below 80% each time. For the same compound, the mortality in [8] is listed as not below 90%. The mortality of insects in data set [9] and in data set [10] was not below 80% throughout.
`CCNS(=O)(=O)c1c(-c2cnc(OCC(F)(F)C(F)(F)F)cn2)nc2ccc(Br)cn12` [compound 2]: the control value in data set [1] (50 ppm), in data set [1] (200 ppm) and in data set [4] was not below 90% in each case. Besides, the mortality in data set [2] (50 ppm), in data set [2] (200 ppm), in [3], in [5], in data set [6] and in data set [7] was not below 80% throughout. The compound also returned a mortality in data set [8] not below 90%. Also, the mortality of insects in [9] and in data set [10] was not below 80% each time.
Take `CN(C)S(=O)(=O)c1c(-c2ccc(OCC(F)(F)C(F)F)nn2)nc2ccc(I)cn12` [compound 4]: the mortality in [2] (50 ppm), in [2] (200 ppm), in [5], in [6] and in data set [7] was not below 80% throughout. Further, the control value in data set [4] is listed as not below 90%.

One may read the mortality as the percentage killed. Higher therefore signals a strong lethal effect.
